Patent US20170266164A1, “NEW METHODS AND USES” (Vicore Pharma AB, priority 2014, published 2017)
Entries after “also recorded” stand apart in the source; their conditions may differ.

Tests used:
Berk-SS mice = test: Urine concentrating ability (urine osmolality), glomerulopathy and survival in drug-treated sickle mice; format: in vivo
From the text: The Berk-AA mice are still relatively outbred and cannot be transplanted into BI/6 or Berk-SS mice without significant graft versus host disease. Knock-in SS (B6; 129-Hba^tm1(HBA)Tow Hbb^tm2(HBG1,HBB*)Tow/Hbb^tm3(HBG1,HBB)Tow/J) mice were kindly provided by Dr. Timothy Townes (University of Alabama, Birmingham). AT1R^−/− mice (B6.129P2Agtr1a^tm1Unc/J) were purchased from Jackson laboratories (Bar Harbor, Me.). AT2R^−/− mice were kindly provided by Dr. Tadashi Inagami (Vanderbilt University School of Medicine, Nashville, Tenn.). […]
Twenty-four hour urine was collected using metabolic cages. Urine volume was measured and then protein stabilization buffer (0.4 mM ophenanthroline, 1 mM p-hydroxymercuribenzoic acid and 0.12 mM pepstatin A and 0.5M EDTA, pH 8.0) was added to a portion of urine to stabilize Ang-11. […] Urine albumin level was measured using the mouse albumin ELISA kit (Bethyl Laboratories, Montgomery, Tex., catalog# E90-134). […] Urine osmolality was measured by vapor pressure osmometer, Vapro 5600, (Wescor Biomedical Systems, South Logan, Utah). Urine creatinine was measured using the creatinine parameter assay kit (R&D Systems, Minneapolis, Minn., catalog# KGE005). Plasma creatinine was measured using the creatinine assay kit (Abcam, Cambridge, Mass., catalog# ab65340) following the manufacturer's instructions. […]

AT2 receptor = target: T1, AT2 receptor (Rattus norvegicus, UniProt P35351); conditions: rat heart; regulation of TIMP1/MMP9 and TGF β1; cited from earlier work
T1 construct: Stimulation of the AT2 receptor with C21 (as defined herein) ameliorates LV fibrosis; host or cells: rat heart (in vivo, endogenous receptor)
T1 sequence (P35351 1-363): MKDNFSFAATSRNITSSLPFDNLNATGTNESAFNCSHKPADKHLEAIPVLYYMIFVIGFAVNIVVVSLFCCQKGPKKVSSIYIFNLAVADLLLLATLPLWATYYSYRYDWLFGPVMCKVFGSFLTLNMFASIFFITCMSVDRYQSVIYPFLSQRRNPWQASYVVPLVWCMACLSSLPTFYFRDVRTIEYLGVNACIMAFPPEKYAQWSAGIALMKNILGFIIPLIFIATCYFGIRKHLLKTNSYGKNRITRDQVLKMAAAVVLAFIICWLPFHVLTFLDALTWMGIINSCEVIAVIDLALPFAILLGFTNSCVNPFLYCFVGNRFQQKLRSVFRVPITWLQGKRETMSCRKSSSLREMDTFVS

[1] = tested on: RBC and platelets of Berk-SS/WT hematopoietic chimeras; test: ROS analysis (CM-H2DCFDA flow cytometry) of blood cells of drug-treated Berk-SS chimeras; format: in vivo, mouse
Method: (§1) ROS was measured in WBC, RBC and platelets by mixing 0.5 μl of whole blood with 100 μl of FACS buffer (1×PBS, 0.5% bovine serum albumin), 0.1 μl of biotin anti-mouse Ter-119/erythroid Ly-76 antibody (BD Biosciences, San Jose, Calif., catalog#553672), 1 μl of Streptavidin APC-CyTM^7 (BD Biosciences, catalog#554063), 1 μl of PE anti-mouse CD45 antibody (BD Biosciences, cat#553081). […] All the tubes were incubated at room temperature for 20-30 minutes. The samples were washed with PBS at 200×g for 5 min and 100 μl of CM-H2DCFDA in 1:200 dilution was added to all sample tubes and the CM-H2DCFDA compensation tube while 100 μl of PBS was added to the rest of three compensation samples. The tubes were incubated for 30 minutes at 37° C. All the tubes were washed with 500 μl of PBS and centrifuged at 200×g for 5 min. After removing the supernatant the pellet was re-suspended in 200 μl of ice-cold PBS. Samples were stored on ice until analyzed on a BD FACSCantoTM II flow cytometer (BD Biosciences, San Jose, Calif.) by gating on the WBC, RBC and platelets. Mice were given the following drug treatments: a) Captopril (West-Ward Pharmaceutical, West Eatontown, N.J., NDC number #0143-1173-01) 0.15 mg/ml in drinking water. b) Losartan (Teva Pharmaceuticals USA Inc, North Wales, Pa., -NDC number#00937366-98) 0.3-0.6 mg/ml in drinking water. c) C21 (Vicore Pharma AB, […], Sweden; Batch/Lot number # A11202910) 10 mg/kg/day in drinking water. Losartan and captopril water bottles were changed twice a week with fresh drugs and C21 was changed daily.

[2] = tested on: erythrocytes and platelets of SCD mice; test: ROS analysis (CM-H2DCFDA flow cytometry) of blood cells of drug-treated SCD mice; format: in vivo, mouse
Method: as §1

Angiotensin-II = test: Plasma and urine Angiotensin-II level (EIA) in drug-treated sickle mice; format: in vivo, mouse; conditions: compared to untreated Berk-SS controls
Method: Urine and plasma Angiotensin-II level was measured by using the Angiotensin II EIA kit (Cayman Chemical Company, Ann Arbor, Mich., catalog# A05880) following the manufacturer's instructions.
Mice were given the following drug treatments: a) Captopril (West-Ward Pharmaceutical, West Eatontown, N.J., NDC number #0143-1173-01) 0.15 mg/ml in drinking water. b) Losartan (Teva Pharmaceuticals USA Inc, North Wales, Pa., -NDC number#00937366-98) 0.3-0.6 mg/ml in drinking water. c) C21 (Vicore Pharma AB, Haraldsgatan 5, S-413 14 Goteborg, Sweden; Batch/Lot number # A11202910) 10 mg/kg/day in drinking water. Losartan and captopril water bottles were changed twice a week with fresh drugs and C21 was changed daily.

Berk-SS/WT chimeric mice = test: Urine albumin, urine osmolality and glomerular disease in drug-treated sickle hematopoietic chimeras; format: in vivo, mouse; conditions: for albuminuria: Berk-SS/WT chimeric mice vs untreated chimeras; for glomerular disease: hematopoietic SCD chimeras; for UCA (urine osmolality): sickle chimeric mice, after 8 hour water deprivation
From the text: The Berk-AA mice are still relatively outbred and cannot be transplanted into BI/6 or Berk-SS mice without significant graft versus host disease. Knock-in SS (B6; 129-Hba^tm1(HBA)Tow Hbb^tm2(HBG1,HBB*)Tow/Hbb^tm3(HBG1,HBB)Tow/J) mice were kindly provided by Dr. Timothy Townes (University of Alabama, Birmingham). AT1R^-/- mice ([…]1Unc/J) were purchased from Jackson laboratories (Bar Harbor, Me.). AT2R^-/- mice were kindly provided by Dr. […] (Vanderbilt University School of Medicine, Nashville, Tenn.). Bone marrow from donor Berkeley sickle mice (or 057BI/6 control mice) were distributed 1:5 among the 057BI/6, AT1R^-/- and AT2R^-/- lethally irradiated (1175 cGy) recipient mice. All animals were maintained in the Cincinnati Children's Research Foundation's vivarium using protocols approved by the Institutional Animal Care and Use Committee. Twenty-four hour urine was collected using metabolic cages. Urine volume was measured and then protein stabilization buffer (0.4 mM ophenanthroline, 1 mM p-hydroxymercuribenzoic acid and 0.12 mM pepstatin A and 0.5M EDTA, pH 8.0) was added to a portion of urine to stabilize Ang-11. The rest of the urine was used for other analyses, including GFR, albumin, osmolality. Temporal assessments of urine albumin, creatinine and osmolality were made after an 8 hour water deprivation in SCD chimeric mice. […] Therefore, in Berk-SS mice (untransplanted/“straight SCD” native sickle mice) no water deprivation was performed prior to urine collection. Urine albumin level was measured using the mouse albumin ELISA kit (Bethyl Laboratories, Montgomery, Tex., catalog# E90-134). The ELISA was performed in a 96-well clear micro-plate (R&D systems, Minneapolis, Minn., catalog # DY990) as per manufacturer's instructions. Urine osmolality was measured by vapor pressure osmometer, Vapro 5600, (Wescor Biomedical Systems, South Logan, Utah). Urine creatinine was measured using the creatinine parameter assay kit (R&D Systems, Minneapolis, Minn., catalog# KGE005). Plasma creatinine was measured using the creatinine assay kit (Abcam, Cambridge, Mass., catalog# ab65340) following the manufacturer's instructions. Mice were given the following drug treatments: a) Captopril (West-Ward Pharmaceutical, West Eatontown, N.J., NDC number #0143-1173-01) 0.15 mg/ml in drinking water. b) Losartan (Teva Pharmaceuticals USA Inc, North Wales, Pa., -NDC number#00937366-98) 0.3-0.6 mg/ml in drinking water. c) C21 (Vicore Pharma AB, […], Sweden; Batch/Lot number # A11202910) 10 mg/kg/day in drinking water. Losartan and captopril water bottles were changed twice a week with fresh drugs and C21 was changed daily. In order to determine the role of the angiotensin receptors in SN, the inventors generated hematopoietic chimeric animals through bone marrow (BM) transplantation. First, they transplanted BM from Berk-SS mice into WT [057BI/6 (CD45.2+) or congenic CD45.1+BI/6] mice; mice that developed >95% sickle chimerism were followed for 6-9 months. Berk-SS/WT chimeras also developed hyperangiotensinemia followed by SN. Like in native (untransplanted) sickle mice, losartan or captopril ameliorated glomerular disease, but worsened UCA of hematopoietic SCD chimeras.

CCCCOC(=O)NS(=O)(=O)c1sc(CC(C)C)cc1-c1ccc(Cn2ccnc2)cc1 [Compound C21, N-butyloxycarbonyl-3-(4-imidazol-1-ylmethylphenyl)-5-iso-butylthiophene-2-sulfonamide]
urine concentrating ability (UCA) (Berk-SS mice; sickle (SCD) mice, drug in drinking water): improve
LV fibrosis (AT2 receptor): ameliorates

C[C@H](CS)C(=O)N1CCC[C@H]1C(=O)O [captopril]
RBC (erythrocyte) ROS [1]: significantly lowered
platelet ROS [1]: not platelets; also recorded: unchanged
mortality (Berk-SS mice; Berk-SS mice on drug from 4 weeks of age, from severe hyposthenuria and dehydration): high mortality
erythrocyte ROS [2]: significantly lowered; also recorded: specifically lowered
platelet ROS [2]: unaffected
plasma AngII levels (Angiotensin-II): lower; also recorded: reduced
urine AngII levels (Angiotensin-II): lower; also recorded: reduced
albuminuria (Berk-SS/WT chimeric mice): did not develop albuminuria
glomerular disease (Berk-SS/WT chimeric mice): ameliorated
UCA (urine osmolality) (Berk-SS/WT chimeric mice): worsened

CCCCc1nc(Cl)c(CO)n1Cc1ccc(-c2ccccc2-c2nn[nH]n2)cc1 [losartan]
RBC (erythrocyte) ROS [1]: significantly lowered
platelet ROS [1]: not platelets; also recorded: unchanged
erythrocyte ROS [2]: significantly lowered; also recorded: specifically lowered
platelet ROS [2]: unaffected
plasma AngII levels (Angiotensin-II): lower; also recorded: reduced
urine AngII levels (Angiotensin-II): lower; also recorded: reduced
albuminuria (Berk-SS/WT chimeric mice): did not develop albuminuria
glomerular disease (Berk-SS/WT chimeric mice): ameliorated
UCA (urine osmolality) (Berk-SS/WT chimeric mice): worsened
